In patent EP4178959B1, “NITROGEN HETEROCYCLIC CYTOKININ DERIVATIVES, COMPOSITIONS CONTAINING THESE DERIVATIVES AND USE THEREOF” (Univerzita Palackého v Olomouci, priority 2020, dated 2022):

Key:
[1] = test system: Zea mays seedlings; assay: Effect on development of Zea mays seedlings (hydroponic); type: in vivo, Zea mays cv. CELLUX; settings: for Root dry mass (%) [4 x 10^-8 mol.l^-1 Kin = 100%] / Shoot dry mass (%) [10^-6 mol.l^-1 Kin = 100%]: at concentration with highest activity
Experimental: Maize seeds (Zea mays cv. CELLUX) were imbibed in tap water and germinated on a wetted filter paper. After 3 days, the germinated seedlings were transferred to aerated hydroponic tanks filled with Hoagland's nutrient solution. The plants were grown in an environmental chamber with 16 h light period (250 μE m^-2 s^-1) at 27°C and 8 h dark period at 20°C. Tested compounds diluted in DMSO were added to nutrient solution immediately when seedlings were nested in the tanks or after two additional days of cultivation. Control plants were grown in parallel with addition of corresponding amount of DMSO (up to 0.01%). Root and leaf tissues of ten plants were harvested at different time points after the application of the compounds, immediately frozen in liquid nitrogen and used for cytokinin content and transcript level analysis. Length of primary root and the first leaf were determined with ruler on sets of twelve plants, each cultivated in the independent tank (for every cytokinin application repeated ten times). Dry mass of root system and the aerial part was determined after cutting off the kernel and desiccation in dryer for two days at 60°C. […] Fig. 4) and up to 1 micromolar concentration when more seedlings were in the solution (approx. 50 seedlings per 1 liter; Fig. 5). […] Table 7: […]

[2] = Calcein AM cytotoxicity assay, NIH3T3 cells; settings: mouse; for CC50 at 72 h: nih3t3 cells
Experimental: (§1) All compound concentrations were examined in duplicates. […] Zero cytotoxicity is a basic prerequisite for the use of these substances in cosmetical applications. To assess the antitumor activity, the toxicity of new derivatives on panels containing cell lines of different histogenic and species origin was tested (Table 5). […] The compounds listed in Table 5 can be divided into 2 groups.
(§2) The first group contains "classical cytokinins" represented by 6-substituted purines (their effects are already known). The second group includes novel 2-fluoro-N6-substituted-9-(2-oxacycloalkyl)-9H-purine-6-amine derivatives. […] Low cytotoxicity (high IC50 value) of the compounds is the basic prerequisite for cosmetic and medical applications. […] Table 5: Cytotoxicity of novel compounds for different normal cell lines tested / IC50 (µmol/L)

[3] = Calcein AM cytotoxicity assay, B10A.4 cells; settings: mouse; for CC50 at 72 h: b10a.4 macrophages
Experimental: as §1, §2

[4] = test system: excised wheat leaf tips; assay: Senescence inhibition on winter wheat leaf segments (chlorophyll retention); parameters: species or system Triticum aestivum cv. Hereward; settings: for Concentration with highest activity: retention of chlorophyll; for Activity (%) [10^-4mol.l^-1 KTHP = 100%] / Emax: retention of chlorophyll in excised wheat leaf tips, 96 h in the dark, at concentration with highest activity; for Emax: Triticum aestivum, foliar, read-out: Activity (%) [10^-4mol.l^-1 KTHP = 100%]
Experimental: Seeds of winter wheat, Triticum aestivum cv. Hereward, were washed under running water for 24 hours and then sown on vermiculite soaked with the Knop's solution. They were placed in the grow chamber at 25 °C with a 16/8 h light period at 50 μmol.m^-2.s^-1. After 7 days, the first leaf was fully developed and the second leaf had started to grow. A tip section of the first leaf, approximately 35 mm long, was removed from 5 seedlings and trimmed slightly to a combined weight of 100 mg. The basal ends of the five leaf tips were placed in the wells of a microtiter polystyrene plate containing 150 μl of the solution of the tested compound each. The entire plate was inserted into a plastic box lined with paper tissues soaked with distilled water to prevent leaf sections from drying out. […] The absorbance of the extract was recorded at 665 nm. In addition, chlorophyll extracts from fresh leaves and leaf tips incubated in deionised water were measured. From the obtained data, the concetration with the highest activity was selected for each compound tested. Relative activity of the compound at this concentration was calculated (Table 7). […] The values shown are means of five replicates and the whole experiment was repeated twice. The compounds to be tested were dissolved in dimethylsulfoxide (DMSO) and the solution brought up to 10^-3 M with distilled water. […] The compounds listed in Table 7 can be divided into 2 groups. The first group contains "classical 6,9-disubstituted purines (KTHP as a control)" known in prior art. […] Table 9: […]

[5] = Calcein AM cytotoxicity assay, BJ cells; settings: human; for CC50 at 72 h: bj fibroblasts
Experimental: as §1, §2

[6] = test system: Arabidopsis thaliana; assay: Effect on the root proliferation of Arabidopsis thaliana; type: in vivo, Arabidopsis thaliana (ecotype Columbia); settings: for Concentration with highest activity: number of lateral roots; for Activity (%) [10^-8 mol.l^-1 Kin = 100%]: number of lateral roots (% of control), at concentration with highest activity
Experimental: Arabidopsis thaliana seeds (ecotype Columbia) were sterilized with 70% ethanol and 0.1% Triton X-100 and then washed with 70% ethanol containing 0.01% Triton X-100. Then the seeds were transferred to vertical square petri dishes (11 seeds per dish) on a solid medium consisting of MS (2.15 g/l), MES (0.5 g/l), sucrose (1 g/l), agar (11 g/l), buffered to pH 5.8, and various concentrations of tested compounds. The compounds were dissolved in DMSO, thus 0.05% DMSO was used as a control solution. After incubation for 3 days in darkness at 4°C, the seeds were germinated and grown in an environmental chamber (fluorescence light intensity 150 µE m^-2 s^-1, humidity 55%, 16 h day/8 h night, 22°C). […] The number of lateral roots was scored under a stereomicroscope. […] In addition, compounds with tetrahydropyranyl protection at N9 slightly increase the number of emerged lateral roots (Fig 3C). […] Table 6: […]

[7] = Cytotoxicity IC50, B10A.4, first column headed B10A.4

| SMILES | root elongation and lateral root proliferation (in words) ([1]; up to 1 µM concentration) | CC50 at 72 h [2] [µM] | CC50 at 72 h [3, 7] [µM] | CC50 at 72 h ([3]; Cytotoxicity IC50, B10A.4, second column headed B10A.4) [µM] | Concentration with highest activity [4] | Activity (%) [10^-4mol.l^-1 KTHP = 100%] [4] | CC50 at 72 h [5] [µM] | Root dry mass (%) [4 x 10^-8 mol.l^-1 Kin = 100%] [1] | Shoot dry mass (%) [10^-6 mol.l^-1 Kin = 100%] [1] | Concentration with highest activity ([1]; root dry mass) | Concentration with highest activity ([1]; shoot dry mass) | IC50 at 72 h [2] [µM] | IC50 at 72 h [3, 7] [µM] | Emax [4] [%] | IC50 at 72 h [5] [µM] | Concentration with highest activity [6] | Activity (%) [10^-8 mol.l^-1 Kin = 100%] [6] |
| --- | --- | --- | --- | --- | --- | --- | --- | --- | --- | --- | --- | --- | --- | --- | --- | --- | --- |
| CC(C)=CCNc1nc(F)nc2c1ncn2C1CCCO1 (stereo not shown) [Compound 13] | does not inhibit root elongation and lateral root proliferation | > 167 | > 167 | > 167 | 10^-4 mol.l^-1 | 109.8 (± 13) % | > 167 | – | – | – | – | – | – | – | – | – | – |
| Fc1nc(NCc2ccco2)c2ncn(C3CCCCO3)c2n1 (stereo not shown) [Compound 57, 2-Fluoro-6-furfurylamino-9-(tetrahydro-2H-pyran-2-yl)-9H-purine] | – | – | – | – | – | – | – | 183.9 (± 24) % | 112.8 (± 11) % | 10^-7 mol.1^-1 | 10^-6 mol.1^-1 | 138 | 149 | 111 | 132 | 10^-6 mol.l^-1 | 68.4 (± 8) % |
| COc1cccc(CNc2nc(F)nc3c2ncn3C2CCCO2)c1 (stereo not shown) [Compound 18] | – | > 167 | > 167 | – | 10^-4 mol.l^-1 | 175.8 (± 10) % | > 167 | 240.6 (± 22) % | 148.2 (± 8) % | 10^-7 mol.1^-1 | 10^-6 mol.1^-1 | – | – | – | – | 10^-5 mol.l^-1 | 28.6 (± 2) % |
| COc1ccccc1CNc1nc(F)nc2c1ncn2C1CCCO1 (stereo not shown) [Compound 17, 2-Fluoro-6-[(2-methoxybenzyl)amino]-9-(tetrahydrofuran-2-yl)-9H-purine] | – | – | – | – | – | – | – | 241.5 (± 19) % | 139.8 (± 7) % | 10^-7 mol.1^-1 | 10^-6 mol.1^-1 | > 167 | > 167 | 104 | > 167 | 10^-5 mol.l^-1 | 30.7 (± 7) % |
| Oc1cc(F)cc(CNc2nc(F)nc3c2ncn3C2CCCO2)c1 (stereo not shown) [Compound 28] | – | – | – | – | – | – | – | 190.2 (± 20) % | 111.8 (± 6) % | 10^-7 mol.1^-1 | 10^-6 mol.1^-1 | – | – | – | – | 10^-5 mol.l^-1 | 49.3 (± 9) % |
| C/C(=C/CNc1nc(F)nc2c1ncn2C1CCCCO1)CO (stereo not shown) [Compound 71] | – | > 167 | > 167 | – | 10^-4 mol.l^-1 | 113 (± 18) % | > 167 | 172.5 (± 14) % | 111.1 (± 6) % | 10^-7 mol.1^-1 | 10^-6 mol.1^-1 | – | – | – | – | 10^-6 mol.l^-1 | 71.8 (± 7) % |
